According to US20080287445A1, “Prokineticin 2 receptor antagonists” (priority 2005, published 2008):
pIC50: −log10 of the molar value. Several values for one entry are separate records, joined by “and”; a condition that tells them apart may be missing. Equal entries are not always repeated.

Target: T1, GPR73 (prokineticin 1 receptor) (Homo sapiens, UniProt Q8TCW9)
T1 construct: expressed in transfected cells; host or cells: HEK 293
Experiment: PK1 functional assay: Ca2+ mobilization screening for PK1 antagonists on the FLIPR
Type: cell-based
Conditions: HEK 293 GPR73 cells, multiple values = multiple testing; for inhibition at 10 µM: HEK293, 10 μM compound, read-out: Ca^2+ Mobilization % Inh @ 10 μM; for pIC50: PK1 ligand preparation at its EC50, read-out: Ca^2+ Mobilization IC50; for Ca^2+ Mobilization % Inh @ 10 μM: 10 μM compound
Method: At a time of 24 h prior to running the assay, in cell culture media (DMEM containing high Glucose and L-glutamine, 10% FBS, 1% Pen/Streptomycin, 1% Sodium Pyruvate, 20 mM HEPES, Zeocin 200 mg/L), 100 μL of 1.3*10^6/ml HEK 293 GPR73 (prokineticin 1 receptor) expressing cells were plated in a 96 well poly-d-lysine coated plate (Costar), and incubated at 37 C and 5% CO2. On the day in which the assay was run, the media was removed and 200 μL of 5× Calcium Plus Dye (Molecular Devices) which was previously resuspended with 200 mL of assay buffer [HBSS w/Ca^2+ and Mg^2+ w/o phenol red, 20 mM HEPES, 0.1% BSA, 10 mL probenecid (710 mg probenecid in 5 mL of 1N NaOH, to which was then added 5 mL HBSS containing 20 mM HEPES)] was added to each well of the 96-well plate. The plate was incubated at 37 C and 5% CO2 for 30 min in dark. The plate was removed and allowed to reach RT for 15 min in the dark. The assay was then run on the FLIPR. In Brief: base line read for 1 min, compound added (25 μL) and incubated for 4 min, 15 seconds, PK1 ligand preparation added (25 μL) for a final concentration of a previously determined EC50 and fluorescence was counted for 1 min, 45 seconds. Baseline is described as the amount of relative fluorescence read when buffer alone is added to cells. Baseline was subtracted from all wells. Percent of control was calculated as follows:
(Baseline subtracted well value is divided by baseline subtracted max value)*100. Percent inhibition is 100 minus the percent of control value.
The IC50 is defined as the amount of a given compound required to inhibit 50% of the maximum signal that is generated by the concentration of PK1 preparation used in our assay. IC50 values were calculated using GraphPad Prism.

T1 sequence (Q8TCW9 whole entry, species assumed): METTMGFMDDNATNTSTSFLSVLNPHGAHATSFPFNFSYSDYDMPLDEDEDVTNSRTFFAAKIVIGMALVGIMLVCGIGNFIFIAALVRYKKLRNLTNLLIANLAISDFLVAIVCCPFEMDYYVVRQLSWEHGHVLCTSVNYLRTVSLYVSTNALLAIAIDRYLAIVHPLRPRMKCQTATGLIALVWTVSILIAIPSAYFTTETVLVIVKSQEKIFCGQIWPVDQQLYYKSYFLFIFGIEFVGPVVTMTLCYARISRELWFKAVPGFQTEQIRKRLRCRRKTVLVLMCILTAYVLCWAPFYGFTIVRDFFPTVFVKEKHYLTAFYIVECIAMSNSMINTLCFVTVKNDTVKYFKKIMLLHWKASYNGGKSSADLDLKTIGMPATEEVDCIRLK

An inhibition at 10 µM of 74% and a pIC50 of 5.89 were found for `COc1ccc(Cn2c(NCc3cccnc3N3CCNCC3)nc(=O)n(Cc3ccc(OC)cc3)c2=O)cc1` [Cpd 12] in this work.
An inhibition at 10 µM of 87% and a pIC50 of 6.54 were found for `Cc1cc(C)c(CNc2nc(=O)n(Cc3ccc4sccc4c3)c(=O)n2Cc2ccc(OC(F)F)cc2)c(N)n1` [Cpd 174] in this work.
An inhibition at 10 µM of 48% and a pIC50 of 5.20 were found for `COC(=O)c1ccc(Cn2c(=O)nc(NCc3cnc(C)cc3C)n(Cc3ccc(OC)cc3)c2=O)cc1` [Cpd 114] in this work.
An inhibition at 10 µM of 70% and a pIC50 of 5.69 were found for `COc1ccc(Cn2c(=O)nc(NCc3cccnc3N)n(Cc3cccc(OC)c3)c2=O)cc1` [Cpd 80] in this work.
With `COc1ccc(Cn2c(=O)nc(NCc3cnc(C)cc3C)n(Cc3ccc(OC(F)F)cc3)c2=O)cc1` [Cpd 193] the “Ca^2+ Mobilization % Inh @ 10 μM” value was 39% and the pIC50 was < 5.00.
For `COc1ccc(Cn2c(=O)nc(NCc3cnc(C)cc3C)n(Cc3ccc4c(c3)CCO4)c2=O)cc1` [Cpd 128], the “Ca^2+ Mobilization % Inh @ 10 μM” value was 98%, the inhibition at 10 µM was 93% and the pIC50 was 6.90 and 6.67.
An inhibition at 10 µM of 98% and a pIC50 of 7.09 were found for `CCCNc1ncccc1CNc1nc(=O)n(Cc2ccc(OC)cc2)c(=O)n1Cc1ccc(OC)cc1` [Cpd 34] in this work.
An inhibition at 10 µM of 98% and a pIC50 of 7.07 were found for `COc1ccc(Cn2c(NCc3ccc(C(F)(F)F)cn3)nc(=O)n(Cc3ccc(OC)cc3)c2=O)cc1` [Cpd 235] in this work.
An inhibition at 10 µM of 64% and a pIC50 of 5.90 were found for `COc1ccc(Cn2c(NCc3ncccc3C(F)(F)F)nc(=O)n(Cc3ccc(OC)cc3)c2=O)cc1` [Cpd 236] in this work.
With `CCc1ccccc1Cn1c(NCc2cccnc2N)nc(=O)n(Cc2ccc(OC)cc2)c1=O` [Cpd 86] the inhibition at 10 µM was 31% and the pIC50 was < 5.00.
An inhibition at 10 µM of 72% and a pIC50 of 6.26 were found for `COc1ccc(Cn2c(NCc3cccnc3N3CCCCC3)nc(=O)n(Cc3ccc(OC)cc3)c2=O)cc1` [Cpd 13] in this work.
An inhibition at 10 µM of 95% and a pIC50 of 6.36 were found for `CCCc1cc(CCC)c(CNc2nc(=O)n(Cc3ccc(OC)cc3)c(=O)n2Cc2ccc(OC)cc2)c(N)n1` [Cpd 265] in this work.
An inhibition at 10 µM of 80% and a pIC50 of 5.97 were found for `COc1ccc(Cn2c(NCc3cnc(C)cc3C)nc(=O)n(Cc3ccc4c(c3)nnn4C)c2=O)cc1` [Cpd 216] in this work.
An inhibition at 10 µM of 91% and a pIC50 of 6.43 were found for `COc1ccc(CCn2c(NCc3cccnc3N)nc(=O)n(Cc3ccc(OC)cc3)c2=O)cc1` [Cpd 94] in this work.
In the case of `Cc1cc(C)c(CNc2nc(=O)n(Cc3ccc(I)cc3)c(=O)n2Cc2ccc(OC(F)F)cc2)cn1` [Cpd 159], the inhibition at 10 µM was 31% and the pIC50 was < 5.00.
An inhibition at 10 µM of 60% and a pIC50 of 5.48 were found for `COc1ccc(Cn2c(=O)nc(NCc3cnc(C)cc3C)n(Cc3ccncc3)c2=O)cc1` [Cpd 101] in this work.
An inhibition at 10 µM of 91% and a pIC50 of 6.72 were found for `COc1ccc(Cn2c(=O)nc(NCc3cccnc3N)n(Cc3ccc4sccc4c3)c2=O)cc1` [Cpd 140] in this work.
In the case of `COc1ccc(Cn2c(=O)nc(NCc3cccnc3N)n(Cc3ccccc3OC(F)(F)F)c2=O)cc1` [Cpd 87], the inhibition at 10 µM was 53% and the pIC50 was < 5.00.
For `COc1ccc(Cn2c(NCc3cnc(C)cc3C)nc(=O)n(Cc3ccc([N+](=O)[O-])cc3)c2=O)cc1` [Cpd 108], the inhibition at 10 µM was 42% and the pIC50 was < 5.00.
With `COc1ccc(Cn2c(NCc3cccnc3N)nc(=O)n(CC3COc4ccccc4O3)c2=O)cc1` (stereo not shown) [Cpd 120] the inhibition at 10 µM was 40% and the pIC50 was < 5.00.
An inhibition at 10 µM of 80% and a pIC50 of 6.28 were found for `CCOc1ccc(Cn2c(=O)nc(NCc3cccnc3N)n(Cc3ccc(OC)cc3)c2=O)cc1` [Cpd 46] in this work.
An inhibition at 10 µM of 62% and a pIC50 of 6.27 were found for `COc1ccc(Cn2c(=O)nc(NCc3cnc(C)cc3C)n(Cc3ccc(SC)cc3)c2=O)cc1` [Cpd 100] in this work.
`Cc1cc(C)c(CNc2nc(=O)n(Cc3ccc4c(c3)CCO4)c(=O)n2Cc2ccc3c(c2)CCO3)c(N)n1` [Cpd 185, 6-[(2-Amino-4,6-dimethyl-pyridin-3-ylmethyl)-amino]-1,3-bis-(2,3-dihydro-benzofuran-5-ylmethyl)-1H-[1,3,5]triazine-2,4-dione] was tested, and the “Ca^2+ Mobilization % Inh @ 10 μM” value was 94% and 98%, the inhibition at 10 µM was 92% and the pIC50 was 7.82 and 7.10 and 6.93.
An inhibition at 10 µM of 96% and a pIC50 of 7.49 were found for `COc1ccc(Cn2c(=O)nc(NCc3cccnc3N)n(Cc3ccc4cc[nH]c4c3)c2=O)cc1` [Cpd 170] in this work.
With `COc1ccc(Cn2c(OCc3ccnc(N)n3)cc(=O)n(Cc3ccc(OC)cc3)c2=O)cc1` [Cpd 232] the inhibition at 10 µM was 33% and the pIC50 was < 5.00.
In the case of `COc1ccc(Cn2c(NCc3cnc(C)cn3)nc(=O)n(Cc3ccc(OC)cc3)c2=O)cc1` [Cpd 247], the “Ca^2+ Mobilization % Inh @ 10 μM” value was 97%, the inhibition at 10 µM was 100% and the pIC50 was 7.57 and 7.52.
With `COc1ccc(Cn2c(=O)nc(NCc3cccnc3N)n(Cc3cccc(C#N)c3)c2=O)cc1` [Cpd 81] the inhibition at 10 µM was 36% and the pIC50 was < 5.00.
An inhibition at 10 µM of 88% and a pIC50 of 6.46 were found for `COc1ccc(Cn2c(NCc3cnc(C)cc3C)nc(=O)n(Cc3ccc(F)cc3)c2=O)cc1` [Cpd 60] in this work.
An inhibition at 10 µM of 94% and a pIC50 of 6.98 were found for `COc1ccc(Cn2c(NCc3cnc(C)cc3C)nc(=O)n(Cc3ccc(OC)c(F)c3)c2=O)cc1` [Cpd 218] in this work.
With `Cc1cc(-c2ccc(F)cc2)nc(N)c1CNc1nc(=O)n(Cc2ccc3c(c2)CCO3)c(=O)n1Cc1ccc(OC(F)F)cc1` [Cpd 262] the inhibition at 10 µM was 0.89% and the pIC50 was < 5.00.
An inhibition at 10 µM of 61% and a pIC50 of 5.34 were found for `Cc1cc(C)c(CNc2nc(=O)n(Cc3ccc4c(c3)CCO4)c(=O)n2Cc2ccc(OC(F)F)cc2)cn1` [Cpd 179] in this work.
An inhibition at 10 µM of 88% and a pIC50 of 6.29 were found for `COc1ccc(Cn2c(=O)nc(NCc3cnc(C)cc3C)n(Cc3cccc4cc[nH]c34)c2=O)cc1` [Cpd 172] in this work.
An inhibition at 10 µM of 94% and a pIC50 of 6.75 were found for `COc1ccc(Cn2c(NCc3ccc(C)nc3)nc(=O)n(Cc3ccc(OC)cc3)c2=O)cc1` [Cpd 59] in this work.
An inhibition at 10 µM of 93% and a pIC50 of 6.65 were found for `Cc1cc(CO)c(CNc2nc(=O)n(Cc3ccc4c(c3)CCO4)c(=O)n2Cc2ccc(OC(F)F)cc2)c(N)n1` [Cpd 251] in this work.
An inhibition at 10 µM of 98% and a pIC50 of 7.22 were found for `COc1ccc(Cn2c(NCc3c(C)cc(C)nc3N)nc(=O)n(Cc3ccc4c(c3)nnn4C)c2=O)cc1` [Cpd 222, 6-[(2-Amino-4,6-dimethyl-pyridin-3-ylmethyl)-amino]-1-(4-methoxy-benzyl)-3-(1-methyl-1H-benzotriazol-5-ylmethyl)-1H-[1,3,5]triazine-2,4-dione] in this work.
An inhibition at 10 µM of 94% and a pIC50 of 6.01 were found for `COc1ccc(Cn2c(=O)nc(NCc3cccnc3N)n(Cc3ccc(C(N)=O)cc3)c2=O)cc1` [Cpd 52] in this work.
An inhibition at 10 µM of 69% and a pIC50 of 5.77 were found for `COc1ccc(Cn2c(NCc3cc(C(F)(F)F)ccn3)nc(=O)n(Cc3ccc(OC)cc3)c2=O)cc1` [Cpd 237] in this work.
An inhibition at 10 µM of 79% and a pIC50 of 6.61 were found for `COc1ccc(Cn2c(=O)nc(NCc3cnc(C)cc3C)n(Cc3ccc(S(C)(=O)=O)cc3)c2=O)cc1` [Cpd 132] in this work.
An inhibition at 10 µM of 95% and a pIC50 of 6.66 were found for `COc1ccc(Cn2c(NCc3cccnc3NCC3CCCO3)nc(=O)n(Cc3ccc(OC)cc3)c2=O)cc1` (stereo not shown) [Cpd 68] in this work.
An inhibition at 10 µM of 71% and a pIC50 of 5.63 were found for `COc1ccc(Cn2c(NCc3cccnc3N)nc(=O)n(Cc3ccc(-n4cccn4)cc3)c2=O)cc1` [Cpd 90] in this work.
An inhibition at 10 µM of 96% and a pIC50 of 6.94 were found for `COC(=O)c1cccc(Cn2c(NCc3cccnc3N)nc(=O)n(Cc3ccc(OC)cc3)c2=O)c1` [Cpd 93] in this work.
An inhibition at 10 µM of 78% and a pIC50 of 6.23 were found for `COc1ccc(Cn2c(=O)nc(NCc3cnc(C)cc3C)n(CC3CCC(OC)CC3)c2=O)cc1` (stereo not shown) [Cpd 150] in this work.
`COc1ccc(Cn2c(NCCc3ccccn3)nc(=O)n(Cc3ccc(Cl)c(Cl)c3)c2=O)cc1` [Cpd 1] was tested, and the inhibition at 10 µM was 37% and the pIC50 was < 5.00.
An inhibition at 10 µM of 92% and a pIC50 of 6.61 were found for `COc1ccc(Cn2c(=O)nc(NCc3cnc(C)cc3C)n(Cc3ccc4[nH]ccc4c3)c2=O)cc1` [Cpd 130] in this work.
`CCCCCCn1c(NCc2cnc(C)cc2C)nc(=O)n(Cc2ccc(OC)cc2)c1=O` [Cpd 103] was tested, and the inhibition at 10 µM was 41% and the pIC50 was < 5.00.
`COc1ccc(Cn2c(NCc3ncccc3C)nc(=O)n(Cc3ccc(OC)cc3)c2=O)cc1` [Cpd 65] was tested, and the pIC50 was < 5.00.
An inhibition at 10 µM of 52% and a pIC50 of 5.34 were found for `COc1ccc(Cn2c(SCc3cccnc3)cc(=O)n(Cc3ccc(OC)cc3)c2=O)cc1` [Cpd 211, 1,3-Bis-(4-methoxy-benzyl)-6-(pyridin-3-ylmethylsulfanyl)-1H-pyrimidine-2,4-dione] in this work.
With `COc1ccc(Cn2c(NCc3ccc[n+]([O-])c3)nc(=O)n(Cc3ccc(OC)cc3)c2=O)cc1` [Cpd 53] the inhibition at 10 µM was 45% and the pIC50 was < 5.00.
An inhibition at 10 µM of 66% and a pIC50 of 6.24 were found for `COc1ccc(Cn2c(NCc3cccn4ccnc34)nc(=O)n(Cc3ccc(OC)cc3)c2=O)cc1` [Cpd 188, 6-[(Imidazo[1,2-a]pyridin-8-ylmethyl)-amino]-1,3-bis-(4-methoxy-benzyl)-1H-[1,3,5]triazine-2,4-dione] in this work.
